# Read-outs that look alike come from different tables or passages of the source.
# Assays:
# [1] = tested on: THP-1 cells; assay: Cytokine production in THP-1 cells (ELISA / Bio-Plex); assay type: cell-based, human
# Description: (§1) Analysis of Cytokines Release: Cells were plated into 96-well plate with the density of 2×10^4 cells/well, cultured and were allowed to become subconfluent. After changing to fresh medium, the cells were treated with 5 bp pA:pU with analogues of 5 bp pA:pU, 70 bp pA:pU, analogues 70 bp pA:pU, or control Poly(A:U) and Poly(I:C) at the final concentration of 100 μg/ml. Cells without treatment were the negative control and cells treated with 1 μg/ml LPS were the positive control. After incubation, the supernatants were collected, centrifuged and then put at −80° C. immediately. Select cytokines, such as IL-6, IL-12(p70), IFN-α2, Tumor Necrosis Factor-α (TNF-α), TNF-related apoptosis-inducing ligand (TRAIL), were analyzed by Bio-Plex Assay kits.
# (§2) Experiments carried out in vitro compare low molecular weight dsRNAs (<15 bps) with high molecular weight dsRNAs (>70 bps). Data generated with dsRNA of similar size and chemical composition obtained by fractionation, indicate that low molecular weight dsRNAs (<15 bps) have substantial TNFalpha and cell death inducing properties in human monocytic THP-1 cells. […] The pro-inflammatory effect of low molecular weight dsrnas is evaluated by measuring cytokine production using elisa (r&d systems) in FIG. 3a as well as in FIG. 3b. cell proliferation, death, and apoptosis are measured by Ethidium bromide (EB), PI and YoPro staining (in FIG. 1), Fluorescence-Activated Cell Sorting (FACS) analysis and mtt assay, Annexin V and PI staining analyzed by flow cytometry (in FIGS. 3A, 3B, 4A, 4B, 4C, 5A and 5B).
# [2] = tested on: human HCC cell line PLC/PRC/5; assay: Cytokine production in HCC cell line PLC/PRC/5; assay type: cell-based; details: for TNFalpha induction: PLC/PRC/5 cancer cells
# Description: as §1, §2
# [3] = tested on: human HCC lines Huh7, PLC/PRF/5, HepG2, primary liver cancer cells P7NSG59410 and P31NSG55368; assay: MTT cytotoxicity and anti-proliferative effect on human liver cancer cells (FIGS. 4A, 4B); assay type: cell-based
# Description: Analysis of Growth Curve: Cell lines were seeded at different initial densities in the 96-well plate for 7 days. The medium was changed every day. The viability and metabolic rate of cultured cells was determined daily by assaying the reduction of 3-(4,5-dimethyl thiazol-2-yl)-2,5-diphenyl tetrazolium bromide (MTT) to formazan. After incubation period, MTT was added into each well in final concentration of 0.5 mg/ml, and incubated at the same condition for 4 h. Then the formazan was collected and dissolved in 120 ul DMSO. The absorption was measured at 560-562 nm in an ELISA reader with 620 nm as reference wave.
# (§3) Analysis of Cytotoxicity and Anti-Proliferative Effect on Cells: Cytotoxicity was measured by MTT assay. Cells were seeded with the density of 5×10^3 cells/well in 96-well plate and incubated for 48 hours in a cell culture incubator, before being treated with compounds. Each compound was dissolved in RNase and DNase free PBS, and diluted to certain concentrations by the same PBS before being added into the cell culture supernatant. The final concentrations of 5 bps pA:pU were 50, 100, 150 and 200 μg/ml, and the gradient of 5 bps pA:pU s analogue was 50, 100, 300, 500 μg/ml. Poly(A:U) and Poly(I:C) were added at the final concentration of 200 μg/ml as controls. Cells without any treatment were the negative control. After incubation for specified times in the cell culture incubator, MTT reagent was added to the cells for the assay as described above.
# (§4) Experiments carried out in vitro compare low molecular weight dsRNAs (<15 bps) with high molecular weight dsRNAs (>70 bps). […] The pro-inflammatory effect of low molecular weight dsrnas is evaluated by measuring cytokine production using elisa (r&d systems) in FIG. 3a as well as in FIG. 3b. cell proliferation, death, and apoptosis are measured by Ethidium bromide (EB), PI and YoPro staining (in FIG. 1), Fluorescence-Activated Cell Sorting (FACS) analysis and mtt assay, Annexin V and PI staining analyzed by flow cytometry (in FIGS. 3A, 3B, 4A, 4B, 4C, 5A and 5B).
# [4] = tested on: mouse liver cancerous cell line BNL 1ME A.7R.1; assay: MTT cytotoxicity on mouse liver cancerous cell line (FIG. 4B); assay type: cell-based; details: dose-effect
# Description: as §3
# [5] = tested on: human HCC cell line PLC/PRC/5 and human HCC cell line Huh7; assay: Cell apoptosis/necrosis, Annexin V and PI flow cytometry (FIG. 5A); assay type: cell-based; details: for cell death: PLC/PRC/5 and Huh7, 200 μg/ml
# Description: (§5) Analysis of Cell Apoptosis/Necrosis: Cells were plated into 24-well plates with the density of 1×10^5 cells/well, and cultured for 48 hours before treatments. The 5 bp polyA:polyU and its analogue, control Poly(A:U) and Poly(I:C) were added at the final concentration of 200 μg/ml into the cell culture supernatants. Cells without treatment were the negative control and the cells treated with 1 μg/ml Lipopolysaccharide (LPS) were the positive control. After incubation for specified time, the cells were harvested and washed with ice-cold PBS, resuspended in 100 μl AnnexinV binding buffer at a concentration of 1×10^5 cells/100 μl and incubated with 2 μl AnnexinV-FITC for 15 minutes at room temperature in the dark. Samples were washed with binding buffer and resuspended again in 100 μl same buffer. After adding 5 μl Propidium Iodide (PI), the samples were diluted with binding buffer and analyzed by flow cytometry (BD Biosciences). Apoptotic cells were identified as an AnnexinV-FITC-positive/PI-negative population.
# as §2
# [6] = tested on: human HCC cell line HepG2 and THP-1 cells; assay: Cell apoptosis/necrosis, Annexin V and PI flow cytometry (FIG. 5B); assay type: cell-based; details: for cell death: HepG2 and THP-1, 200 μg/ml
# Description: as §5, §2
# [7] = tested on: THP-1, PLC/PRC/5, Huh7 and HepG2 cells; assay: Cytotoxicity, cell death and apoptosis of higher molecular weight dsRNA and controls (FIGS. 3A, 3B, 5A and 5B); assay type: cell-based
# Description: as §3
# Analysis of Cell Apoptosis/Necrosis: Cells were plated into 24-well plates with the density of 1×10^5 cells/well, and cultured for 48 hours before treatments. The 5 bp polyA:polyU and its analogue, control Poly(A:U) and Poly(I:C) were added at the final concentration of 200 μg/ml into the cell culture supernatants. Cells without treatment were the negative control and the cells treated with 1 μg/ml Lipopolysaccharide (LPS) were the positive control. […] After adding 5 μl Propidium Iodide (PI), the samples were diluted with binding buffer and analyzed by flow cytometry (BD Biosciences). […]
# as §4
# [8] = tested on: PLC/PRC/5 and THP-1 cells; assay: TNFalpha and IL-6 induction by higher molecular weight dsRNA and controls (FIGS. 3A, 3B); assay type: cell-based, human
# Description: as §1, §4
# [9] = tested on: THP-1 cells; assay: MTT cytotoxicity on THP-1 cells (FIG. 4C); assay type: cell-based, human; details: THP-1, dose-effect
# Description: as §3, with “After incubation for specified times in the cell culture incubator, MTT reagent was added to the cells for the assay as described above.” left out
# as §4
# [10] = tested on: THLE2 cells; assay: MTT cytotoxicity on THLE2 cells emulating normal human liver cells (FIG. 4C); assay type: cell-based
# Description: as §3
# [11] = tested on: human primary fibroblasts; assay: MTT cytotoxicity on human primary fibroblasts (FIG. 4C); assay type: cell-based
# Description: as §3
# [12] = tested on: cell line emulating normal hepatocytes; assay: TNF-alpha production in a cell line emulating normal hepatocytes; assay type: cell-based, human
# Description: as §1
# [13] = tested on: human liver cancer cell lines Huh7 and HepG2; assay: MTT assay of Lipofectamine formulated vs unformulated pA:pU (FIG. 6); assay type: cell-based; details: Huh7 and HepG2, 24 hour treatment
# Description: In one embodiment, 5 bp dsRNAs are formulated using Lipofectamine 2000 to form lipid-based nanoparticles. One exemplary method follows the steps of: 1) in a microfuge tube 1.5 ul of Lipofectamine was diluted to a final volume of 23.5 ul using the appropriate media (per cell type); 2) 25 ul of the appropriate 5 bp dsRNAs analog dilution (to achieve the desired final per well concentration) was added to the diluted Lipofectamine and the mixture was incubated at Room Temperature (RT) for 5 minutes to form lipo-complexes; 3) 250 ul of the appropriate media was added to achieve a final volume of 300 ul; 4) 100 ul of the mixture from step 3 was added to each replicate and the cells was incubated for 24 hours.
# Huh7 and HepG2 Cells were plated in a 96 well plate at a density of 2500 cells per well. Cells were incubated for 24 hours. After 24 hours of incubation, the medium was removed and cells were treated with various formulations of 5 bp pA:pU in triplicate in their respective culture mediums with […] 10% FBS. Untreated cells and Dox (10 uM) were used as controls. Cells were incubated for an additional 24 hours. After the 24 hour drug treatment, the medium was removed. Fresh culture medium will be added and the MTT assay was performed using the Life Technologies Vybrant MTT kit. […] The plate was read at 570 nm.
# [14] = Huh7, PLC/PRF/5, HepG2, P7NSG59410, P31NSG55368
substance,measurement,setting,value
2O′-methyl analogue of 5 base pairs polyA:polyU,cytokine production by monocytes,[1]; relative to native 5 bps pA:pU,attenuated
same,TNFalpha induction,[2],elevated
same,cell growth inhibition and death inducing properties,[3]; [14],significantly attenuated
same,cell growth inhibition and death inducing properties,"[3]; Huh7, PLC/PRF/5, HepG2, P7NSG59410, P31NSG55368, listed as 2O′-methyl analogue",less potent
same,cell growth inhibition and death inducing properties,[4],attenuated cytotstatic/cytotoxic profile
same,cell death,[5],attenuated cytotstatic/cytotoxic profile
same,cell death,[6],attenuated cytotstatic/cytotoxic profile
"polyinosinic:polycytidylic acid [pI:pC, reference compound]",cytotoxicity or anti-proliferative effect,[5]; PLC/PRC/5 and Huh7,no cytotoxicity or anti-proliferative effect
same,cell death,[5],minimal cell death or apoptosis
same,cytotoxicity or anti-proliferative effect,[6]; HepG2 and THP-1,no cytotoxicity or anti-proliferative effect
same,cell death,[6],minimal cell death or apoptosis
same,cell death or apoptosis,"[7]; FIGS. 3A, 3B, 5A and 5B",minimal cell death or apoptosis
same,cytotoxicity or anti-proliferative effect,"[7]; FIGS. 3A, 3B, 5A and 5B",no cytotoxicity or anti-proliferative effect
same,IL-6 inducing capabilities,[8],negligible
same,TNFalpha inducing capabilities,[8],negligible
5 base pairs polyadenylic-polyuridylic acid [5 bps pA:pU],IL-6 induction,[1]; THP-1 cells,substantially induced
same,TNFalpha induction,[1]; THP-1 cells,substantially induced
same,TNFalpha induction,[2],substantially induced
same,IL-6 induction,[2]; PLC/PRC/5 cells,substantially induced
same,cell growth inhibition and death inducing properties,[3]; [14],cell growth inhibition and death inducing properties
same,cell growth inhibition and death inducing properties,[4],cell growth inhibition and death inducing properties
same,cell growth inhibition and death inducing properties,[9]; listed as low molecular weight dsRNA (5 bps),"anti-proliferative, pro-death effect"
same,cell growth inhibition and death inducing properties,[9]; listed as polyA:polyU of 5 bps,cell growth inhibition and death inducing properties
same,cytotoxicity on cells emulating normal human liver cells,[10],only a modest effect
same,cytotoxicity on cells emulating normal human liver cells,[10]; listed as 5 bp polyA:polyU,more refractory
same,cytotoxicity on cells emulating normal human liver cells,[10]; listed as low molecular weight dsRNA of 5 bps,more attenuated cytotoxicity profile
same,cytotoxic or anti-proliferative effect on fibroblasts,[11],cytotoxic or anti-proliferative effect
same,cytotoxic or anti-proliferative effect on fibroblasts,[11]; listed as 5 bp polyA:polyU,sensitive
same,cell death,[5],induces cell death
same,cell death,[6],induces cell death
same,TNF-alpha production,[12],blunted
same,biological activity in MTT assay,[13],more biologically active than 15 bps
same,primary mechanism of cytotoxicity,[7],"cytolysis, with a minimal apoptosis component"
